Test results from patent US20240327430A1 (Breakpoint Therapeutics GmbH, priority 2023, published 2024).
Like-named read-outs stand apart in the source and are kept apart here.

Molecular target: truncated Polθ protein (Polθ-Hel containing the helicase domain (67-894)) (Homo sapiens (Human), UniProt O75417)
Assay: Polθ ATPase assay (Biological Assay 1, ADP-Glo luminescence)
Assay type: biochemical
Procedure, shortened: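 Polθ-Hel (0.5 nM) with 500 nM ssDNA oligo in pH 8.8 Tris buffer (5 mM MgCl2, 1 mM DTT) was preincubated with compound 30 min at 23 °C. The reaction ran 60 min after 60 μM ATP was added (stated as the added solution, not final). ADP formed was detected by ADP-Glo luminescence to derive IC50.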

[1] = Polθ-Hel 0.5 nM, DNA substrate 500 nM, ATP 60 μM, 23° C., read-out: Pole ATPase assay IC50
[2] = Table B, compounds of Experimental Part B, in vitro, read-out: Polθ ATPase assay IC50

Sequence of truncated Polθ protein (Polθ-Hel containing the helicase domain (67-894)) (O75417 67-894): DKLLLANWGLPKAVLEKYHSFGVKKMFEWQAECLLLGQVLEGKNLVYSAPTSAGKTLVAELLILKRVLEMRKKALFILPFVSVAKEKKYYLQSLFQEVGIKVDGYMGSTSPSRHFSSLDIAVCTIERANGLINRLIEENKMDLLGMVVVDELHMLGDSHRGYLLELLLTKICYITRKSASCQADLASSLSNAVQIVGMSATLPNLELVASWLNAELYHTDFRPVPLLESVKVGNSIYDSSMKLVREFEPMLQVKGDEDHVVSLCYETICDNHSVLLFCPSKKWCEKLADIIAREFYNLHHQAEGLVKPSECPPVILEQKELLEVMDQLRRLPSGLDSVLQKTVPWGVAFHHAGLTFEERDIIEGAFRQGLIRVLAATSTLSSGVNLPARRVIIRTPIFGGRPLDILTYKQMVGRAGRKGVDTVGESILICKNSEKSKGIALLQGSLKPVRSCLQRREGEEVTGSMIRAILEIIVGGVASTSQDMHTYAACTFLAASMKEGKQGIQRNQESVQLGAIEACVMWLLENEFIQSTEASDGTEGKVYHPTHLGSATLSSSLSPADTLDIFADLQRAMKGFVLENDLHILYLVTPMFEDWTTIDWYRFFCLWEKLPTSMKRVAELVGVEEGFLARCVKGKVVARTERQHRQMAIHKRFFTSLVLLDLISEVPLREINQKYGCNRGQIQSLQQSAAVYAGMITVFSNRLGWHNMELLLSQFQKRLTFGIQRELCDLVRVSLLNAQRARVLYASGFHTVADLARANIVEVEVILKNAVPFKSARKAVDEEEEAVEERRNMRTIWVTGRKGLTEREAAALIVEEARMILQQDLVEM

IC50 [1]	IC50 [2]	Structure (SMILES)
< 100 nM		COc1cnc(Cl)cc1-c1cc(C)ncc1C(=O)Nc1nc2ccncc2s1 [Example 44, 2′-chloro-5′-methoxy-6-methyl-N-{[1,3]thiazolo[5,4-c]pyridin-2-yl}-[4,4′-bipyridine]-3-carboxamide]
< 100 nM		COc1cnc(Cl)cc1-c1cc(C)ncc1C(=O)Nc1nc2ccc(N3CCOCC3=O)cc2s1 [Example 57, 2′-chloro-5′-methoxy-6-methyl-N-[6-(3-oxomorpholin-4-yl)-1,3-benzothiazol-2-yl]-[4,4′-bipyridine]-3-carboxamide]
	100 to 1000 nM	COc1cnc(Cl)cc1-c1cc(C)ncc1C(=O)Nc1nc2cc(OCC3CS(=O)(=O)C3)ccc2s1 [Example 113, 2′-chloro-N-{5-[(1,1-dioxo-1-λ6-thietan-3-yl)methoxy]-1,3-benzothiazol-2-yl}-5′-methoxy-6-methyl-[4,4′-bipyridine]-3-carboxamide]
< 100 nM		COc1cnc(C(F)(F)F)cc1-c1cc(C)ncc1C(=O)Nc1nc2cnc(N3CCC(O)CC3)nc2s1 [Example 88, N-[5-(4-hydroxypiperidin-1-yl)-[1,3]thiazolo[5,4-d]pyrimidin-2-yl]-5′-methoxy-6-methyl-2′-(trifluoromethyl)-[4,4′-bipyridine]-3-carboxamide]
< 100 nM		COc1cnc(Cl)cc1-c1cc(C)ncc1C(=O)Nc1nc2cc(Cl)ncc2s1 [Example 63, 2′-chloro-N-{6-chloro-[1,3]thiazolo[5,4-c]pyridin-2-yl}-5′-methoxy-6-methyl-[4,4′-bipyridine]-3-carboxamide]
< 100 nM		COc1cnc(Cl)cc1-c1cc(C)ncc1C(=O)Nc1nc2ccc(SC)cc2s1 [Example 43, 2′-chloro-5′-methoxy-6-methyl-N-[6-(methylsulfanyl)-1,3-benzothiazol-2-yl]-[4,4′-bipyridine]-3-carboxamide]
	< 100 nM	COc1cnc(Cl)cc1-c1cc(C)ncc1C(=O)Nc1nc2cc(OC(C)C)ccc2s1 [Example 112, 2′-chloro-5′-methoxy-6-methyl-N-[5-(propan-2-yloxy)-1,3-benzothiazol-2-yl]-[4,4′-bipyridine]-3-carboxamide]
< 100 nM		COc1cnc(Cl)cc1-c1cc(C)ncc1C(=O)Nc1nc2cnc(Cl)cc2s1 [Example 64, 2′-chloro-N-{6-chloro-[1,3]thiazolo[4,5-c]pyridin-2-yl}-5′-methoxy-6-methyl-[4,4′-bipyridine]-3-carboxamide]
< 100 nM		COc1cnc(Cl)cc1-c1cc(C)ncc1C(=O)Nc1nc2cnc(N3CC4(CC(O)C4)C3)nc2s1 [Example 81, 2′-chloro-N-(5-{6-hydroxy-2-azaspiro[3.3]heptan-2-yl}-[1,3]thiazolo[5,4-d]pyrimidin-2-yl)-5′-methoxy-6-methyl-[4,4′-bipyridine]-3-carboxamide]
	< 100 nM	COc1cnc(Cl)cc1-c1cc(C)ncc1C(=O)Nc1nc2cnc(NC[C@H](C)O)nc2s1 [Example 96, 2′-chloro-N-(5-{[(2S)-2-hydroxypropyl]amino}-[1,3]thiazolo[5,4-d]pyrimidin-2-yl)-5′-methoxy-6-methyl-[4,4′-bipyridine]-3-carboxamide]
< 100 nM		COc1cnc(Cl)cc1-c1cc(C)ncc1C(=O)Nc1nc2ccc(C3=CCCOC3)nc2s1 [Example 37, 2′-chloro-N-[5-(5,6-dihydro-2H-pyran-3-yl)-[1,3]thiazolo[5,4-b]pyridin-2-yl]-5′-methoxy-6-methyl-[4,4′-bipyridine]-3-carboxamide]
< 100 nM		COc1cnc(Cl)cc1-c1cc(C)ncc1C(=O)Nc1nc2ccc(Br)cc2s1 [Example 5, N-(6-bromo-1,3-benzothiazol-2-yl)-2′-chloro-5′-methoxy-6-methyl-[4,4′-bipyridine]-3-carboxamide]
	< 100 nM	COc1cnc(Cl)cc1-c1cc(C)ncc1C(=O)Nc1nc2cnc(N3CC(C)(OC)C3)nc2s1 [Example 97, 2′-chloro-5′-methoxy-N-[5-(3-methoxy-3-methylazetidin-1-yl)-[1,3]thiazolo[5,4-d]pyrimidin-2-yl]-6-methyl-[4,4′-bipyridine]-3-carboxamide]
> 1000 nM		COc1ccccc1-c1cnccc1C(=O)Nc1nc2cc(C(F)(F)F)ccc2s1 [Example 12, 3-(2-methoxyphenyl)-N-[5-(trifluoromethyl)-1,3-benzothiazol-2-yl]pyridine-4-carboxamide]
< 100 nM		COc1cnc(Cl)cc1-c1cc(C)ncc1C(=O)Nc1nc2cnc(N3CCC4(COC4)C3)nc2s1 [Example 76, 2′-chloro-5′-methoxy-6-methyl-N-(5-{2-oxa-6-azaspiro[3.4]octan-6-yl}-[1,3]thiazolo[5,4-d]pyrimidin-2-yl)-[4,4′-bipyridine]-3-carboxamide]
< 100 nM		COc1cnc(Cl)cc1-c1cc(C)ncc1C(=O)Nc1nc2cnc(N3CCOCC3)nc2s1 [Example 22, 2′-chloro-5′-methoxy-6-methyl-N-[5-(morpholin-4-yl)-[1,3]thiazolo[5,4-d]pyrimidin-2-yl]-[4,4′-bipyridine]-3-carboxamide]
	< 100 nM	COc1cnc(Cl)cc1-c1cc(C)ncc1C(=O)Nc1nc2cnc(N3CC(C)(OC)C3)cc2s1 [Example 131, 2′-chloro-5′-methoxy-N-[6-(3-methoxy-3-methylazetidin-1-yl)-[1,3]thiazolo[4,5-c]pyridin-2-yl]-6-methyl-[4,4′-bipyridine]-3-carboxamide]
< 100 nM		COc1cnc(Cl)cc1-c1cc(C)ncc1C(=O)Nc1nc2cnc(N3CC[C@@H](O)C3)nc2s1 [Example 26, 2′-chloro-N-{5-[(3R)-3-hydroxypyrrolidin-1-yl]-[1,3]thiazolo[5,4-d]pyrimidin-2-yl}-5′-methoxy-6-methyl-[4,4′-bipyridine]-3-carboxamide]
	< 100 nM	COc1cnc(Cl)cc1-c1cc(C)ncc1C(=O)Nc1nc2cc(OCCN3CCOCC3)ccc2s1 [Example 111, 2′-chloro-5′-methoxy-6-methyl-N-{5-[2-(morpholin-4-yl)ethoxy]-1,3-benzothiazol-2-yl}-[4,4′-bipyridine]-3-carboxamide]
< 100 nM		COc1cnc(Cl)cc1-c1cc(C)ncc1C(=O)Nc1nc2ccc(C#N)cc2s1 [Example 3, 2′-chloro-N-(6-cyano-1,3-benzothiazol-2-yl)-5′-methoxy-6-methyl-[4,4′-bipyridine]-3-carboxamide]
100 to 1000 nM		COc1ccccc1-c1cnccc1C(=O)Nc1nc2ccc(Br)cc2s1 [Example 9, N-(6-bromo-1,3-benzothiazol-2-yl)-3-(2-methoxyphenyl)pyridine-4-carboxamide]
< 100 nM		COc1cnc(Cl)cc1-c1cc(C)ncc1C(=O)Nc1nc2ccc(Cl)nc2s1 [Example 7, 2′-chloro-N-{5-chloro-[1,3]thiazolo[5,4-b]pyridin-2-yl}-5′-methoxy-6-methyl-[4,4′-bipyridine]-3-carboxamide]
	< 100 nM	COc1cnc(Cl)cc1-c1cc(C)ncc1C(=O)Nc1nc2c(CCC(=O)N(C)C)cccc2s1 [Example 100, 2′-chloro-N-{4-[2-(dimethylcarbamoyl)ethyl]-1,3-benzothiazol-2-yl}-5′-methoxy-6-methyl-[4,4′-bipyridine]-3-carboxamide]
< 100 nM		COc1cnc(Cl)cc1-c1cc(C)ncc1C(=O)Nc1nc2cnc(N3CCCC(C#N)C3)nc2s1 (centres unmarked) [Example 35, 2′-chloro-N-[5-(3-cyanopiperidin-1-yl)-[1,3]thiazolo[5,4-d]pyrimidin-2-yl]-5′-methoxy-6-methyl-[4,4′-bipyridine]-3-carboxamide]
< 100 nM		COc1cnc(Cl)cc1-c1cc(C)ncc1C(=O)Nc1nc2cnc(N3CCC4(CC3)COC4)nc2s1 [Example 53, 2′-chloro-5′-methoxy-6-methyl-N-(5-{2-oxa-7-azaspiro[3.5]nonan-7-yl}-[1,3]thiazolo[5,4-d]pyrimidin-2-yl)-[4,4′-bipyridine]-3-carboxamide]
< 100 nM		COc1cnc(Cl)cc1-c1cc(C)ncc1C(=O)Nc1nc2cnc(NC3CCC3)nc2s1 [Example 79, 2′-chloro-N-[5-(cyclobutylamino)-[1,3]thiazolo[5,4-d]pyrimidin-2-yl]-5′-methoxy-6-methyl-[4,4′-bipyridine]-3-carboxamide]
< 100 nM		COc1cnc(Cl)cc1-c1cc(C)ncc1C(=O)Nc1nc2cnc(N[C@@H]3CC[C@H](O)C3)nc2s1 (racemic) [Example 49, rac-2′-chloro-N-(5-{[(1R,3S)-3-hydroxycyclopentyl]amino}-[1,3]thiazolo[5,4-d]pyrimidin-2-yl)-5′-methoxy-6-methyl-[4,4′-bipyridine]-3-carboxamide]
< 100 nM		COc1cnc(Cl)cc1-c1cc(C)ncc1C(=O)Nc1nc2cnc(NC(C)C)nc2s1 [Example 52, 2′-chloro-5′-methoxy-6-methyl-N-{5-[(propan-2-yl)amino]-[1,3]thiazolo[5,4-d]pyrimidin-2-yl}-[4,4′-bipyridine]-3-carboxamide]
	< 100 nM	COc1cnc(Cl)cc1-c1cc(C)ncc1C(=O)Nc1nc2c(Br)cccc2s1 [Example 99, N-(4-bromo-1,3-benzothiazol-2-yl)-2′-chloro-5′-methoxy-6-methyl-[4,4′-bipyridine]-3-carboxamide]

Structure (SMILES)	IC50 [1]	IC50 [2]
COc1ccccc1-c1cnccc1C(=O)Nc1nc2cccnc2s1 [Example 14, 3-(2-methoxyphenyl)-N-{[1,3]thiazolo[5,4-b]pyridin-2-yl}pyridine-4-carboxamide]	> 1000 nM	
COc1cnc(Cl)cc1-c1cc(C)ncc1C(=O)Nc1nc2ccc(N3CCOCC3)nc2s1 [Example 72, 2′-chloro-5′-methoxy-6-methyl-N-[5-(morpholin-4-yl)-[1,3]thiazolo[5,4-b]pyridin-2-yl]-[4,4′-bipyridine]-3-carboxamide]	< 100 nM	
COc1ccccc1-c1cnccc1C(=O)Nc1nc2ccc(-c3ccc(Cl)cn3)cc2s1 [Example 39, N-[6-(5-chloropyridin-2-yl)-1,3-benzothiazol-2-yl]-3-(2-methoxyphenyl)pyridine-4-carboxamide]	100 to 1000 nM	
